molecular target: T1, intracellular domain of DDR1 (Homo sapiens, UniProt Q08345); test: Evaluation of DDR1 inhibition activity with HTRF KinEASE-TK kit; type: biochemical; details: DDR1 intracellular domain 5 ng/μL, ATP 25 μm/L, TK Substrate-biotin 1000 nmol/L, room temperature, one hour
T1 construct: the intracellular domain of DDR1 (in a final concentration of 5 ng/μL) (Carna Biosciences, Inc.); purchased Carna Biosciences, Inc
Experimental: The DDR1 inhibition activity in the compounds of Examples 1 to 80 was evaluated with HTRF® KinEASE-TK kit (Cisbio Bioassays).
Each test substance was dissolved in dimethyl sulfoxide and then used for the evaluation as described below. Moreover, each of test substances and reagents was diluted in the kinase buffer (Cisbio Bioassays) prepared by adding thereto MgCl2, MnCl2, DTT, and the Supplemental Enzyme buffer (Cisbio Bioassays) to concentrations of 5 mmol/L, 0.5 mmol/L, 0.25 mmol/L, and 50 nmol/L, respectively, and then used. Each test substance (in DMSO in a final concentration of 1%), the intracellular domain of DDR1 (in a final concentration of 5 ng/μL) (Carna Biosciences, Inc.), the phosphate donor ATP (in final concentration of 25 μm/L) (Sigma), and the substrate TK Substrate-biotin (in a final concentration of 1000 nmol/L) (Cisbio Bioassays) were added to a 384-well black plate (Corning) and allowed to react at room temperature for one hour. After completion of the reaction, the TK Antibody-Cryptate (Cisbio Bioassays) and the Streptavidin-XL665 (Cisbio Bioassays) were added thereto and allowed to react at room temperature for one hour. In addition, the plate was provided with a well to which a test substance was not added, and with a well to which a test substance and the intracellular domain of DDR1 were […].
The fluorescence intensity in each well was measured using a multi-label counter (Envision, PerkinElmer; excitation wavelength: 320 nm, measurement wavelength: 665 nm and 620 nm) to calculate a ratio (the fluorescence intensity at 665 nm/the fluorescence intensity at 620 nm). The inhibition rate (%) of a test substance at each concentration was calculated based on the formula below: Inhibition rate (%)=([the ratio obtained from the well containing no test substance]−[the ratio from a well containing a test substance])/([the ratio obtained from the well containing no test substance]−[the ratio obtained from the well containing no intracellular domain of DDR1 and no test substance])×100.
The calculated inhibition rates were fitted to a sigmoidal dose-response curve by regression analysis using the Prism 5.04 (GraphPad Software, Inc.) to calculate the IC50 value of the test substance.

T1 sequence (Q08345 439-913 limits assumed): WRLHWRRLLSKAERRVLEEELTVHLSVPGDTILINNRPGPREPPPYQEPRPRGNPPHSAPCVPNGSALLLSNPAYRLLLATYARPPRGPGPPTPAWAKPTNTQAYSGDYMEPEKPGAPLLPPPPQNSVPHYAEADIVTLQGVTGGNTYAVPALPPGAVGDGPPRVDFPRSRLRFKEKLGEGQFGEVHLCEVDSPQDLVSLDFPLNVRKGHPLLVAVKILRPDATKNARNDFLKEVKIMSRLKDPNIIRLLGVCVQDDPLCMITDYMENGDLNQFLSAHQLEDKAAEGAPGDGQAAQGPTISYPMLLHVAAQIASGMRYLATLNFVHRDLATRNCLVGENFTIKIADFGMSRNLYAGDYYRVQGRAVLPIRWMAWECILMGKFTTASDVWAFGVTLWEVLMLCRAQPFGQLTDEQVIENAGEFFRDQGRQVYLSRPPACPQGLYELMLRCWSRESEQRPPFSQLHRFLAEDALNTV

| Compound | IC50 |
| --- | --- |
| COc1ccc(C(F)(F)F)cc1NC(=O)N[C@H]1CC[C@H](OCc2cccnc2)CC1 [Example 69, 1-(2-methoxy-5-(trifluoromethyl)phenyl)-3-(trans-4-(pyridin-3-ylmethoxy)cyclohexyl)urea] | 17.2 nM |
| CNc1cc(O[C@H]2CC[C@H](NC(=O)Nc3cc(C(F)(F)F)cc(CO)c3OC)CC2)ncn1 [Example 71, 1-(3-(hydroxymethyl)-2-methoxy-5-(trifluoromethyl)phenyl)-3-(trans-4-((6-(methylamino)pyrimidin-4-yl)oxy)cyclohexyl)urea] | 10.8 nM |
| COc1ccc(OC(F)(F)F)cc1NC(=O)N[C@H]1CC[C@H](COCc2ccncc2)CC1 [Example 74, 1-(2-methoxy-5-(trifluoromethoxy)phenyl)-3-(trans-4-((pyridin-4-ylmethoxy)methyl)cyclohexyl)urea] | 25.2 nM |
| O=C(Nc1cc(C(F)(F)F)ccc1OC1COC1)N[C@H]1CC[C@H](OCc2cccnc2)CC1 [Example 76, 1-(2-(oxetan-3-yloxy)-5-(trifluoromethyl)phenyl)-3-(trans-4-(pyridin-3-ylmethoxy)cyclohexyl)urea] | 14.1 nM |
| COc1c(CO)cc(OC(F)(F)F)cc1NC(=O)N[C@H]1CC[C@H](Oc2ccnc(-c3cccnc3)n2)CC1 [Example 79, 1-(3-(hydroxymethyl)-2-methoxy-5-(trifluoromethoxy)phenyl)-3-(trans-4-((2-(pyridin-3-yl)pyrimidin-4-yl)oxy)cyclohexyl)urea] | 22.8 nM |

Second part, the compound after the results:

| IC50 | Compound |
| --- | --- |
| 9.69 nM | COc1c(CO)cc(OC(F)(F)F)cc1NC(=O)N[C@H]1CC[C@H](OCc2cccnc2)CC1 [Example 67, 1-(3-(hydroxymethyl)-2-methoxy-5-(trifluoromethoxy)phenyl)-3-(trans-4-(pyridin-3-ylmethoxy)cyclohexyl)urea] |
| 16.6 nM | COc1ccc(OC(F)(F)F)cc1NC(=O)N[C@H]1CC[C@H](OCc2cccnc2)CC1 [Example 68, 1-(2-methoxy-5-(trifluoromethoxy)phenyl)-3-(trans-4-(pyridin-3-ylmethoxy)cyclohexyl)urea] |
| 13.4 nM | CNc1cc(O[C@H]2CC[C@H](NC(=O)Nc3cc(OC(F)(F)F)cc(CO)c3OC)CC2)ncn1 [Example 70, 1-(3-(hydroxymethyl)-2-methoxy-5-(trifluoromethoxy)phenyl)-3-(trans-4-((6-(methylamino)pyrimidin-4-yl)oxy)cyclohexyl)urea] |
| 82.2 nM | COc1ccc(OC(F)(F)F)cc1NC(=O)N[C@H]1CC[C@H](COCc2cccnc2)CC1 [Example 72, 1-(2-methoxy-5-(trifluoromethoxy)phenyl)-3-(trans-4-((pyridin-3-ylmethoxy)methyl)cyclohexyl)urea] |
| 57.7 nM | COc1ccc(C(F)(F)F)cc1NC(=O)N[C@H]1CC[C@H](COCc2cccnc2)CC1 [Example 73, 1-(2-methoxy-5-(trifluoromethyl)phenyl)-3-(trans-4-((pyridin-3-ylmethoxy)methyl)cyclohexyl)urea] |
| 20 nM | COc1ccc(C(F)(F)F)cc1NC(=O)N[C@H]1CC[C@H](COCc2ccncc2)CC1 [Example 75, 1-(2-methoxy-5-(trifluoromethyl)phenyl)-3-(trans-4-((pyridin-4-ylmethoxy)methyl)cyclohexyl)urea] |
| 80.1 nM | COc1ccc(OC(F)(F)F)cc1NC(=O)N[C@H]1CC[C@H](COc2cccc(C(N)=O)c2)CC1 [Example 78, 3-((trans-4-(3-(2-methoxy-5-(trifluoromethoxy)phenyl)ureido)cyclohexyl)methoxy)benzamide] |
| 24.9 nM | CNc1nccc(O[C@H]2CC[C@H](NC(=O)Nc3cc(OC(F)(F)F)cc(CO)c3OC)CC2)n1 [Example 80, 1-(3-(hydroxymethyl)-2-methoxy-5-(trifluoromethoxy)phenyl)-3-(trans-4-((2-(methylamino)pyrimidin-4-yl)oxy)cyclohexyl)urea] |

— patent US10280145B2 (Toray Industries, Inc., priority 2015, dated 2019)
